Data reported in ChEMBL document CHEMBL4630901 (2021).

Assays:
Details in all cases: Compound concentration 10.0 uM
[1] = biological target: Delta-type opioid receptor (Homo sapiens) (UniProt P41143)
[2] = biological target: T1, Muscarinic acetylcholine receptor M1 (Homo sapiens) (UniProt P11229)
T1 sequence (whole entry): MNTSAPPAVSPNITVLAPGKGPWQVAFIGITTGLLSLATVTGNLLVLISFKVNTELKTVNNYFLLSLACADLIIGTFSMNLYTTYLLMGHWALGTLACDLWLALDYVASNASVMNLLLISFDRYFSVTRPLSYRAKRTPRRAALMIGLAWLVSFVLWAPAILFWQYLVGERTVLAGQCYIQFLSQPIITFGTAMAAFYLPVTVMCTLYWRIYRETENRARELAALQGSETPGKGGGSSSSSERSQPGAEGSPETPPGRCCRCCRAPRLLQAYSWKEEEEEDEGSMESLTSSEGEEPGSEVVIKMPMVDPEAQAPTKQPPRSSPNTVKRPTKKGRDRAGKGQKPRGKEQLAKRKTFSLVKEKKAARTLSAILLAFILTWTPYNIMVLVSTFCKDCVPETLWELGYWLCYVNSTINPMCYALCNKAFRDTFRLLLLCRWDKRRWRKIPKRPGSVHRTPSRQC

[3] = biological target: Histamine H1 receptor (Homo sapiens) (UniProt P35367)
Chain of Histamine H1 receptor (Homo sapiens) (P35367 whole entry): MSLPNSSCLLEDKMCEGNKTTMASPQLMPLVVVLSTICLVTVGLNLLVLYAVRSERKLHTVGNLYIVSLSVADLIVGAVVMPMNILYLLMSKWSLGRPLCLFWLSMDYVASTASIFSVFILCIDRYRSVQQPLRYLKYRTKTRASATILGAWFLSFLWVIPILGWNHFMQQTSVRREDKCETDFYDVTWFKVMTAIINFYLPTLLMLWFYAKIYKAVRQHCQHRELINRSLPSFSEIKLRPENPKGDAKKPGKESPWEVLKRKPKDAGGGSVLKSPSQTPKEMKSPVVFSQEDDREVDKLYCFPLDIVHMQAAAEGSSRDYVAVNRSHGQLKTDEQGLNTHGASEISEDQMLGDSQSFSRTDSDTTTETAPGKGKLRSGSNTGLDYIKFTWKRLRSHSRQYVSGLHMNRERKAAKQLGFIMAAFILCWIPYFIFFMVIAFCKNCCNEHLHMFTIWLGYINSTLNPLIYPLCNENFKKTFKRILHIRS

[4] = biological target: 5-hydroxytryptamine receptor 2A (Homo sapiens) (UniProt P28223)
Chain of 5-hydroxytryptamine receptor 2A (Homo sapiens) (P28223 whole entry): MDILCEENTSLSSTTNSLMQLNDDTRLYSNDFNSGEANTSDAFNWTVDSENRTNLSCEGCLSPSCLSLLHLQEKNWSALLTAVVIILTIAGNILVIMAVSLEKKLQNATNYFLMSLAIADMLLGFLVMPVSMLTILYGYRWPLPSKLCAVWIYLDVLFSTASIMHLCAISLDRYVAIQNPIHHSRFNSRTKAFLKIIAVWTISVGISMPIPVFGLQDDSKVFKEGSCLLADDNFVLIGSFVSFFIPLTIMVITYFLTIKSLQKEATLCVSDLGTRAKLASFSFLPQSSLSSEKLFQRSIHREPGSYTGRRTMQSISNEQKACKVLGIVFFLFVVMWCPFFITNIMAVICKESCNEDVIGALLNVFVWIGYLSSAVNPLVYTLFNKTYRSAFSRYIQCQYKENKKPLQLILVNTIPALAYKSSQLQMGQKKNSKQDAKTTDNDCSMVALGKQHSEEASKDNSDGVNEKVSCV

Rattus norvegicus = species: Rattus norvegicus
[5] = biological target: Histamine H3 receptor (Homo sapiens) (UniProt Q9Y5N1)
[6] = biological target: D(1A) dopamine receptor (Homo sapiens) (UniProt P21728)
[7] = biological target: 5-hydroxytryptamine receptor 5A (Homo sapiens) (UniProt P47898)
Chain of 5-hydroxytryptamine receptor 5A (Homo sapiens) (P47898 whole entry): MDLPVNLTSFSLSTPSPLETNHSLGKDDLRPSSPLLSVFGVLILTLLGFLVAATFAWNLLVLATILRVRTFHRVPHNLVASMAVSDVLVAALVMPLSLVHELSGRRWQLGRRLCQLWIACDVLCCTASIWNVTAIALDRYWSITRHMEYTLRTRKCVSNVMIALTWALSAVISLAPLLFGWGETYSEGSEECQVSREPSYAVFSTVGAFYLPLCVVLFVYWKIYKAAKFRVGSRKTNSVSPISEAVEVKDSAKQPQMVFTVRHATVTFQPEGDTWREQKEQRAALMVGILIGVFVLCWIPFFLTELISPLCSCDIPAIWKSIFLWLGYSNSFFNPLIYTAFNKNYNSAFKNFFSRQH

[8] = biological target: Sigma intracellular receptor 2 (Homo sapiens, UniProt Q5BJF2)
Chain of Sigma intracellular receptor 2 (Q5BJF2 whole entry): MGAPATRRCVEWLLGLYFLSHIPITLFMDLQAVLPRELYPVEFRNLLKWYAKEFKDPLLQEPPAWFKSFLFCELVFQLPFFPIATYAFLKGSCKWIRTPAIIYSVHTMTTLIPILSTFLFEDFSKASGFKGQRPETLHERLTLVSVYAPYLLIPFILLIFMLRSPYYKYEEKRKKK

[9] = biological target: T2, GABA-A receptor; anion channel (Rattus norvegicus) (UniProt O09028+P15431+P18506+P18508+P19969+P20236+P23574+P23576+P28471+P28473+P30191+P62813+P63079+P63138+Q91ZM7+Q9ES14)
[10] = biological target: Muscarinic acetylcholine receptor M3 (Homo sapiens) (UniProt P20309)
Chain of Muscarinic acetylcholine receptor M3 (Homo sapiens) (P20309 whole entry, looked up): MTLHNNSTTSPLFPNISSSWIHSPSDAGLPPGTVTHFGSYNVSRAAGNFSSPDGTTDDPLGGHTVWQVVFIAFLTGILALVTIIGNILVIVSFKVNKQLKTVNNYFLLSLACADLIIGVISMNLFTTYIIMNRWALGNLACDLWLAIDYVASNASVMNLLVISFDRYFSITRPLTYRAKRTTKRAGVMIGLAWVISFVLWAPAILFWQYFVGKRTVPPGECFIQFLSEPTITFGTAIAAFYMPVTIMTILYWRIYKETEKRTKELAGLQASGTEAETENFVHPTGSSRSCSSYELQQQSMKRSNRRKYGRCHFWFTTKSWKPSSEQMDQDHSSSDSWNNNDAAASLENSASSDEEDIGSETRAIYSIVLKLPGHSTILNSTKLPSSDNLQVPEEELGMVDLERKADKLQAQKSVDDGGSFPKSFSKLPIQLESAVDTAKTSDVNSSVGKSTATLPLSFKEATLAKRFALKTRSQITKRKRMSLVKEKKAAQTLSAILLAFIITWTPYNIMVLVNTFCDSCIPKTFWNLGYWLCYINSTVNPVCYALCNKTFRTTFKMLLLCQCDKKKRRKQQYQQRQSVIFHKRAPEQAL

[11] = biological target: T2, GABA-A receptor; anion channel (Rattus norvegicus); remark: listed apart in the source
[12] = biological target: 5-hydroxytryptamine receptor 2B (Homo sapiens) (UniProt P41595)
Chain of 5-hydroxytryptamine receptor 2B (Homo sapiens) (P41595 whole entry): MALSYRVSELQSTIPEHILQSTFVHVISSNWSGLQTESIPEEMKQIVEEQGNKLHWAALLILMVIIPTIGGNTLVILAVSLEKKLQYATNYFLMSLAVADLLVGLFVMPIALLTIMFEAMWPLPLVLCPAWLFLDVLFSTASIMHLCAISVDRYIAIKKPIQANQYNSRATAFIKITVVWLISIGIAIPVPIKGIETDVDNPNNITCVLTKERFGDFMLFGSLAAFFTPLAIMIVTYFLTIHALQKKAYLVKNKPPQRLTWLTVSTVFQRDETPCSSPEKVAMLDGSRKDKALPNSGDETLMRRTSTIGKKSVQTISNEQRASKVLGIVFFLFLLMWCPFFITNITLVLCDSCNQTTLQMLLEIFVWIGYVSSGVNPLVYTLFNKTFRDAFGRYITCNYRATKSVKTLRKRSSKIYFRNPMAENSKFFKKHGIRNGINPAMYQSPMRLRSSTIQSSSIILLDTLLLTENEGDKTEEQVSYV

[13] = biological target: Alpha-1D adrenergic receptor (Homo sapiens) (UniProt P25100)
Chain of Alpha-1D adrenergic receptor (Homo sapiens) (P25100 whole entry): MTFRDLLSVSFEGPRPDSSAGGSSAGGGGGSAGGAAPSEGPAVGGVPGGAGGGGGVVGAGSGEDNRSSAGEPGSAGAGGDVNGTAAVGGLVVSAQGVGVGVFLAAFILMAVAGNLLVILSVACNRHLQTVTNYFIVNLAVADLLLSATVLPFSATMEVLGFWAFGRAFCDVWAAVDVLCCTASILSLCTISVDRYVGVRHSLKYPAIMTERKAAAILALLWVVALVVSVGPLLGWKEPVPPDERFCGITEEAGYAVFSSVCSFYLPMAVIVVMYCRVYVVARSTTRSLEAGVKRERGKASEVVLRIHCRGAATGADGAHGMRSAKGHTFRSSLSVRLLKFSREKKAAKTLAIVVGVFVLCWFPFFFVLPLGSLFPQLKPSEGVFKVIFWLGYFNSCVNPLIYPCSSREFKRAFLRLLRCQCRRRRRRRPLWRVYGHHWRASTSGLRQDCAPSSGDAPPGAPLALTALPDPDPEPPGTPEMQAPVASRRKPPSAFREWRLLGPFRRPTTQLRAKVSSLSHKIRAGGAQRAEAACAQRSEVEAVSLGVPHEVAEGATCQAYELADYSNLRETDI

[14] = biological target: 5-hydroxytryptamine receptor 7 (Homo sapiens) (UniProt P34969)
Chain of 5-hydroxytryptamine receptor 7 (Homo sapiens) (P34969 whole entry): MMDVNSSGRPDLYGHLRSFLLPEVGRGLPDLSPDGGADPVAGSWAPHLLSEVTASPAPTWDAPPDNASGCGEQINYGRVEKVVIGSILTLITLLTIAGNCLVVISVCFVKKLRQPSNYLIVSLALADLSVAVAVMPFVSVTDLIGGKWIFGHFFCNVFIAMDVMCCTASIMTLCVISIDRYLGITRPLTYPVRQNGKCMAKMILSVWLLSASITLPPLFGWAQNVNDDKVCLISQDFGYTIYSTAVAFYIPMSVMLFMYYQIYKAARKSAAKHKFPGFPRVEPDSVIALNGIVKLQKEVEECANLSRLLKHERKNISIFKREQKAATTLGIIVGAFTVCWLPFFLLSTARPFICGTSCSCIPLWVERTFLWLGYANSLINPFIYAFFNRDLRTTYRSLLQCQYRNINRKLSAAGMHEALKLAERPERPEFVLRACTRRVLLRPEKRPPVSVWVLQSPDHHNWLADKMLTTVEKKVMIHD

[15] = biological target: Muscarinic acetylcholine receptor M5 (Homo sapiens) (UniProt P08912)
Chain of Muscarinic acetylcholine receptor M5 (Homo sapiens) (P08912 whole entry): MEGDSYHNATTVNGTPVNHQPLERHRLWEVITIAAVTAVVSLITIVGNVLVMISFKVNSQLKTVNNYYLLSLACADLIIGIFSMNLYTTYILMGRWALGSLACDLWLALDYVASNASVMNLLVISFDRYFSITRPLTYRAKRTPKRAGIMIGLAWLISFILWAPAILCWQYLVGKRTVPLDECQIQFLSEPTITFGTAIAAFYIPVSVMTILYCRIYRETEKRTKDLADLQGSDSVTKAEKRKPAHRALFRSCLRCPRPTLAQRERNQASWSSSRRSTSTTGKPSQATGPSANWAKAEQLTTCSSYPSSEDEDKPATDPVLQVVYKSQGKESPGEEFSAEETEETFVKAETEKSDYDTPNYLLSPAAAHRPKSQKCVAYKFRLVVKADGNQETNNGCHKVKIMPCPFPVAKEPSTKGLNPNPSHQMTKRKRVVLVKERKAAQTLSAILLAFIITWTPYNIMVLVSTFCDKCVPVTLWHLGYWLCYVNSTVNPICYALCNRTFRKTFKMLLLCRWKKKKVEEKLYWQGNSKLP

[16] = biological target: D(4) dopamine receptor (Homo sapiens) (UniProt P21917)
[17] = biological target: Beta-2 adrenergic receptor (Homo sapiens) (UniProt P07550)
Chain of Beta-2 adrenergic receptor (Homo sapiens) (P07550 whole entry, looked up): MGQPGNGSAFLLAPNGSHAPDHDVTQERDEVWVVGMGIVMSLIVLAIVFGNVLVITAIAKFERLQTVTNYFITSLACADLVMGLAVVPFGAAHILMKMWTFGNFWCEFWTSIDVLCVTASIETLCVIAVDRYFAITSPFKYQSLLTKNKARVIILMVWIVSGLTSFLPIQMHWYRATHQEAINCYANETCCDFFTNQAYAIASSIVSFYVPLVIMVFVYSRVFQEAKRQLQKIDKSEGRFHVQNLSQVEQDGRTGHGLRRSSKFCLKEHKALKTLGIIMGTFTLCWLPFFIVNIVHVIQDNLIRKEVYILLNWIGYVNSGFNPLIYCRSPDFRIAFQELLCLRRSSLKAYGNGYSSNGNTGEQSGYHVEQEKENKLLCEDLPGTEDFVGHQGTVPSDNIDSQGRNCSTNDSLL

[18] = biological target: Histamine H2 receptor (Homo sapiens) (UniProt P25021)
Chain of Histamine H2 receptor (Homo sapiens) (P25021 whole entry): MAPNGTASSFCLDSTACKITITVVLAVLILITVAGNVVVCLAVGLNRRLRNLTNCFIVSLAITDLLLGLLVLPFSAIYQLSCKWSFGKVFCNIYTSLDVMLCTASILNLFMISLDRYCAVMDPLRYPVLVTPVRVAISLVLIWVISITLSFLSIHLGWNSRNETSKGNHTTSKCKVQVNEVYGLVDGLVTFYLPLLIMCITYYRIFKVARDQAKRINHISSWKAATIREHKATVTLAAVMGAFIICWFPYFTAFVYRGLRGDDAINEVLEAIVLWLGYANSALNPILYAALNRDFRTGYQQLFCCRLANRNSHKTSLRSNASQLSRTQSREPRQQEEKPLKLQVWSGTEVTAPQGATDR

[19] = biological target: 5-hydroxytryptamine receptor 6 (Homo sapiens) (UniProt P50406)
[20] = biological target: T3, Alpha-1A adrenergic receptor (Homo sapiens) (UniProt P35348)
T3 sequence (whole entry): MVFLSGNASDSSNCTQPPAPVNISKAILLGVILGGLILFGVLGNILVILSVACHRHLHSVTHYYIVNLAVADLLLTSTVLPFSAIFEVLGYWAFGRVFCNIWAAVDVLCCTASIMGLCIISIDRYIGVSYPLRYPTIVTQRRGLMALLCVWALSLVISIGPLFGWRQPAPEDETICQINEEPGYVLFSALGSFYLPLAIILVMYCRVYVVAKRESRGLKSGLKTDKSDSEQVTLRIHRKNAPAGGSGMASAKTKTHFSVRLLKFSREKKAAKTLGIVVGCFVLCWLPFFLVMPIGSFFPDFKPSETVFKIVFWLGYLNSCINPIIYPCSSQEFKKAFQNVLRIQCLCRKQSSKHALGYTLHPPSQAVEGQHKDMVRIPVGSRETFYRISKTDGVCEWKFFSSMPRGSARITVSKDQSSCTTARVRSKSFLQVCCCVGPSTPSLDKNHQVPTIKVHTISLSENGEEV

[21] = biological target: T4, Muscarinic acetylcholine receptor M2 (Homo sapiens) (UniProt P08172)
T4 sequence (whole entry): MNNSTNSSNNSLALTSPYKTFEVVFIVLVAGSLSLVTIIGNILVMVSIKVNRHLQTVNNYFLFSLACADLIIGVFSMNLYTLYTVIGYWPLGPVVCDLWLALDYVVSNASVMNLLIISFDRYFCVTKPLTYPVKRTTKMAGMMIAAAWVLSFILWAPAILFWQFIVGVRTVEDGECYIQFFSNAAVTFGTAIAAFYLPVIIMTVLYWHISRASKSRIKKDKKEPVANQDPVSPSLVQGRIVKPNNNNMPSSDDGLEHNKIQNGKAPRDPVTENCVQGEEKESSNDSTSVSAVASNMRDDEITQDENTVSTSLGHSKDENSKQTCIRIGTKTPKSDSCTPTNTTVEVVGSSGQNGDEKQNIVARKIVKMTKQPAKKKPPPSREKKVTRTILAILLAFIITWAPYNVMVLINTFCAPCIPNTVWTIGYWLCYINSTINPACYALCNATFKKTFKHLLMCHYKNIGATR

[22] = biological target: 5-hydroxytryptamine receptor 3A (Homo sapiens) (UniProt P46098)
[23] = biological target: Glutamate NMDA receptor (Rattus norvegicus) (UniProt P35439+Q00959+Q00960+Q00961+Q62645+Q8VHN2+Q9R1M7)

Row | Compound | inhibition [1] [%] | inhibition [2] [%] | inhibition [3] [%] | inhibition [4] [%] | inhibition (Rattus norvegicus) [%] | inhibition [6] [%] | inhibition [7] [%] | inhibition [8] [%] | inhibition [9] [%] | inhibition [10] [%] | inhibition [11] [%] | inhibition [12] [%] | inhibition [13] [%] | inhibition [14] [%] | inhibition [15] [%] | inhibition [16] [%] | inhibition [17] [%] | inhibition [18] [%] | inhibition [19] [%] | inhibition [20] [%] | also measured
1 | Cc1c(N2CCNCC2)nc2ccc(Br)cc2c1C(=O)NC[C@H](CCC(=O)O)c1ccccc1Cl [BAY-403] | 36 | 8.42 | 17.5 | 38 | 20 | 31.6 | 11.3 | 60 | 38.3 | 13.7 | -0.16 | 31 | 16 | 13 | -0.13 | 5.89 | 18.4 | -4.15 | 1.76 | 23.3 | inhibition [5]: 16.9%; inhibition [21]: 13.8%; inhibition [22]: 86%
2 | Cc1c(N2CCCC2)nc2ccc(Br)cc2c1C(=O)NC[C@H](CCC(=O)O)c1ccccc1Cl [BAY-6672] | 15.4 | 14.3 | 4.61 | 5.24 | -2.43 | 13.8 | -5.32 | 8.52 | 5.06 | -0.57 | 8.16 | 5.5 | 3.44 | 0.4 | 9.92 | 1.48 | 19.9 | 23.3 | 6.59 | 1.72 | inhibition [21]: 14.6%; inhibition [23]: -5%; inhibition [22]: 37.7%
